Experimental data reported in patent US20240270698A2, “NOVEL PYRIMIDINE DERIVATIVE AND USE THEREOF” (KOREA RESEARCH INSTITUTE OF CHEMICAL TECHNOLOGY, priority 2019, published 2024).

Columns and labels:
[1] = target: T1, human recombinant MLK3 protein (Homo sapiens, UniProt Q16584); experiment: MLK3 kinase activity assay (Eurofins, gamma-33P-ATP, filtermat scintillation counting); type: biochemical; settings: human recombinant MLK3, 120 minutes at room temperature
T1 construct: purchased Eurofins
T1 sequence (Q16584 whole entry): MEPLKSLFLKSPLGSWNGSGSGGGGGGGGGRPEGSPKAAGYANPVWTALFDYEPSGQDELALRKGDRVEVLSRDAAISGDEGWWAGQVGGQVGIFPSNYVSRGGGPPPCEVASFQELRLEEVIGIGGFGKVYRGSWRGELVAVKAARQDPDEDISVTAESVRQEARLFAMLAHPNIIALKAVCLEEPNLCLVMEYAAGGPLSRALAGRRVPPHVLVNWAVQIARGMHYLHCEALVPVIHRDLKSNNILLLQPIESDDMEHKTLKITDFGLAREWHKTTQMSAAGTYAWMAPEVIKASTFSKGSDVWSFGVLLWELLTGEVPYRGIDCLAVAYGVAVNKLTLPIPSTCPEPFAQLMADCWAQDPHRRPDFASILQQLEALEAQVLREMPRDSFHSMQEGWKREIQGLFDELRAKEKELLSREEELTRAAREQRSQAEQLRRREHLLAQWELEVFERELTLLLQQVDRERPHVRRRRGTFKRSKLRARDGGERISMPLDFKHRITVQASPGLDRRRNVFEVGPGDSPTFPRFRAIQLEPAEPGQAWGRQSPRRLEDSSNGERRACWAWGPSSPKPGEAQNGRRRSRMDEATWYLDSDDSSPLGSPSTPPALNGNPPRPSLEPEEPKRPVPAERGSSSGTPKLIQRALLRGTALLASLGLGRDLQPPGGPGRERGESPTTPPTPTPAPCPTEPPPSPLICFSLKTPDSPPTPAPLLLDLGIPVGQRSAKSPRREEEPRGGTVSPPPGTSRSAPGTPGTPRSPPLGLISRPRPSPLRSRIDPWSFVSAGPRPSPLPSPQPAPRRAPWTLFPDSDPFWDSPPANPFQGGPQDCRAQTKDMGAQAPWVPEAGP
Method: (§1) Compounds 1 to 119 synthesized in Example 1 according to the present disclosure were assayed for inhibitory activity against MLK3/LRRK2 enzymes and anticancer activity against HepG2/HS746T cancer cells, and the results are summarized in Table 1, below.
(§2) Inhibitory activity against MLK3 and LRRK2 enzymes was evaluated in Eurofins. In brief, human recombinant MLK3 protein was mixed with the compounds in a reaction buffer (8 mM MOPS (pH 7.0), 0.2 mM EDTA, 0.33 mg/mL myelin basic protein, 5 mM DTT) to which a mixture of 10 mM magnesium acetate and gamma-33P-ATP was then added before incubation at room temperature for 120 minutes. Afterward, the reaction was terminated with 0.5% phosphoric acid. Ten μL of the total mixture was spotted onto a P30 filtermat which was then washed four times for 4 minutes with 0.425% phosphoric acid and once in methanol prior to scintillation counting. Values for the activity of MLK3 were expressed as % of the control. For the activity of LRRK2, human recombinant LRRK2 protein was mixed with the compounds in a reaction buffer (50 mM HEPES (pH 8.0), 0.2 mM EDTA, 0.01% Brij-35, 1% (w/v) BSA, 5 mM DTT, 250 uM substrate peptide RLGRDKYKTLRQIRQ) and then reacted with a mixture of 10 mM magnesium acetate and gamma-33P-ATP at room temperature for 40 minutes. Afterward, the reaction was terminated with 0.5% phosphoric acid. Ten μL of the total mixture was spotted onto a P30 filtermat which was then washed four times for 4 minutes with 0.425% phosphoric acid and once in methanol prior to scintillation counting. Values for the activity of LRRK2 were expressed as % of the control.

[2] = target: T2, human recombinant LRRK2 protein (Homo sapiens, UniProt Q5S007); experiment: LRRK2 kinase activity assay (Eurofins, gamma-33P-ATP, filtermat scintillation counting); type: biochemical; settings: human recombinant LRRK2, 40 minutes at room temperature
T2 construct: purchased Eurofins
T2 sequence (Q5S007 whole entry): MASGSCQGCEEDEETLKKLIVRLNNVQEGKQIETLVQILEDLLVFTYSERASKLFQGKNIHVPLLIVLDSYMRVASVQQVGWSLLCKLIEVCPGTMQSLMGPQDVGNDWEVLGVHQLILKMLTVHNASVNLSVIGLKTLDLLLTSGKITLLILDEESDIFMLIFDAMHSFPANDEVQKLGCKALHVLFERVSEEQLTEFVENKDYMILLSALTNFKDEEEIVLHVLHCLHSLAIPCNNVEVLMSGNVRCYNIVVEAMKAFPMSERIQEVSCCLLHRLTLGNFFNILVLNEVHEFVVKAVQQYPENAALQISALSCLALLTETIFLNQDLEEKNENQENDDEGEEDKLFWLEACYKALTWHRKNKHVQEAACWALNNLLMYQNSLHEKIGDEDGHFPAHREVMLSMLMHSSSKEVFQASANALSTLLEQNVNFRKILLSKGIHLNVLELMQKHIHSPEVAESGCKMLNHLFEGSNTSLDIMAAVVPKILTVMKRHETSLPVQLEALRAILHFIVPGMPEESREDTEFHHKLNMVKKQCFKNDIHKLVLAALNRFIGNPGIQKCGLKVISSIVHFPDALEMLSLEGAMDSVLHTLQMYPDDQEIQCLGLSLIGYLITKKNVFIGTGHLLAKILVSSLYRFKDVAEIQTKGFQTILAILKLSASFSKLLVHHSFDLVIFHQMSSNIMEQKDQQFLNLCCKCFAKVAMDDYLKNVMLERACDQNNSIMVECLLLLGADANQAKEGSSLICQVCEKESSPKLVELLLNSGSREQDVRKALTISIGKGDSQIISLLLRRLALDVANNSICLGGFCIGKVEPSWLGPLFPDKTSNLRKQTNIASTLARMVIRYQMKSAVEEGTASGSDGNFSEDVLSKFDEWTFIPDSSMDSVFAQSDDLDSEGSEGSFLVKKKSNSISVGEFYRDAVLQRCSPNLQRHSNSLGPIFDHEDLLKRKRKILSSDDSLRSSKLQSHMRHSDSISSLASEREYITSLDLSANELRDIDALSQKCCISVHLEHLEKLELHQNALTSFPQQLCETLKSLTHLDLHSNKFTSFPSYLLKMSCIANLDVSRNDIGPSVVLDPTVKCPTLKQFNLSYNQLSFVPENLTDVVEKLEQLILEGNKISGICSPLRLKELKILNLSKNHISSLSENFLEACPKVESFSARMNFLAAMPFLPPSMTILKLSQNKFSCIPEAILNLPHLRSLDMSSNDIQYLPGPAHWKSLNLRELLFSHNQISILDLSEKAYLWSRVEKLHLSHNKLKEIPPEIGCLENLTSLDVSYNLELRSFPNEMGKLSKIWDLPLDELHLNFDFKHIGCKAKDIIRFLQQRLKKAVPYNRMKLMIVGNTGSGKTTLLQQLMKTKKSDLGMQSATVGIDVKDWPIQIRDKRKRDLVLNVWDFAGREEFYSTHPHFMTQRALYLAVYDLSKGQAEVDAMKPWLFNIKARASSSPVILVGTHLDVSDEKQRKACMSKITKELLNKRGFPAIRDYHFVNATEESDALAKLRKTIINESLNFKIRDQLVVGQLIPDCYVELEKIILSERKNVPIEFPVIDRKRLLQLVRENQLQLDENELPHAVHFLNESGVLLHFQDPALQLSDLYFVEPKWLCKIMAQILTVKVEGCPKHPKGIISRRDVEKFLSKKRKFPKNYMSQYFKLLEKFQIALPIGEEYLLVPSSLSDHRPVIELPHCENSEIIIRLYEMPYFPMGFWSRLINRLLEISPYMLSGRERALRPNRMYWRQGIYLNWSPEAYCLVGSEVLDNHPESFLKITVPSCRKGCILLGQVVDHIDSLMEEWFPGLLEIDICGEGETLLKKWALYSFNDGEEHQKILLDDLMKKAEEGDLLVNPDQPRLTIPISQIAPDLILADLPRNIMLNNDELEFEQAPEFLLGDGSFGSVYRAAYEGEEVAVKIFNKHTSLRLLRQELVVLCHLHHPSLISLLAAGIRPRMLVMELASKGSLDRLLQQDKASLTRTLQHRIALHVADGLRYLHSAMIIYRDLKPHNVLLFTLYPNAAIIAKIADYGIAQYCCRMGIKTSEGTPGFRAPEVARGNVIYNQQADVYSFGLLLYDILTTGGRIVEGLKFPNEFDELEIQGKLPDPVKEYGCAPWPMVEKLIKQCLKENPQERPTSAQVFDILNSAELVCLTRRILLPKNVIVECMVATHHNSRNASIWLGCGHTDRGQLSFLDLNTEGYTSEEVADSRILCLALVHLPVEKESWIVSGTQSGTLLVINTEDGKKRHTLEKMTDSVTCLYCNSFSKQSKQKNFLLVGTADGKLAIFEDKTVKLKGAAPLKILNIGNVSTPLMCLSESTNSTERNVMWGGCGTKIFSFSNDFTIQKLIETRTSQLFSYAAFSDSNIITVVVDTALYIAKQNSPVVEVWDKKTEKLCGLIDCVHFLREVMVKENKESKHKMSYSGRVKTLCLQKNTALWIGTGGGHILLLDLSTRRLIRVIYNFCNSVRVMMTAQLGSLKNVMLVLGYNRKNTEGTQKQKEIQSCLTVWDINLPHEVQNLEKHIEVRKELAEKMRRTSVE
Method: as §1, §2

HepG2 cancer cells = experiment: Anticancer activity, cell viability by CCK-8, HepG2; type: cell-based; settings: HepG2, 10 μM, 72 hours
Method: (§3) Compounds 1 to 119 synthesized in Example 1 according to the present disclosure were assayed for inhibitory activity against MLK3/LRRK2 enzymes and anticancer activity against HepG2/H[…] cancer cells, and the results are summarized in Table 1, below. Assay for anticancer activity was conducted as follows. HepG2 and H[…] cancer cells were purchased from the Korean Cell Line Bank and cultured according to the instruction provided thereby. One hundred μL of a culture of the cells were seeded at a density of 4,000 cells/well into 96-well plates. After 24 hours, the cells were treated with the compounds for 72 hours. Then, cell viability was assayed using CCK-8 and expressed as % of the control.

HS746T cancer cells = experiment: Anticancer activity, cell viability by CCK-8, HS746T; type: cell-based; settings: 72 hours
Method: as §3

Row | IC50 [1] [µM] | IC50 [2] [µM] | Compound | Cell viability (% of Con. 10 μM) HepG2 (HepG2 cancer cells) | Cell viability (% of Con. 10 μM) HS746T (HS746T cancer cells)
1 | 0.1 to 1 | 0.1 to 1 | CC(C)S(=O)(=O)c1ccccc1Nc1nc(Nc2cc(Cl)cc(Cl)c2)ncc1Cl [compound 2, 5-Chloro-N^2-(3,5-dichlorophenyl)-N^4-(2-(isopropylsulfonyl)phenyl) pyrimidine-2,4-diamine] | – | –
2 | 0.1 to 1 | 0.1 to 1 | Cc1cc(C)cc(Nc2ncc(Cl)c(Nc3ccccc3S(=O)(=O)C(C)C)n2)c1 [compound 3, 5-Chloro-N^2-(3,5-dimethylphenyl)-N^4-(2-(isopropylsulfonyl)phenyl) pyrimidine-2,4-diamine] | – | –
3 | 0.1 to 1 | 0.01 to 0.1 | CC(C)S(=O)(=O)c1ccccc1Nc1nc(Nc2cc(F)c(Br)c(F)c2)ncc1Cl [compound 4, N^2-(4-Bromo-3,5-difluorophenyl)-5-chloro-N^4-(2-(isopropylsulfonyl)phenyl)pyrimidine-2,4-diamine] | – | –
4 | 0.01 to 0.1 | 0.1 to 1 | CC(C)S(=O)(=O)c1ccccc1Nc1nc(Nc2cc(C(F)(F)F)cc(C(F)(F)F)c2)ncc1Cl [compound 5, N^2-(3,5-bis(trifluoromethyl)phenyl)-5-chloro-N^4-(2-(isopropylsulfonyl)phenyl)pyrimidine-2,4-diamine] | – | –
5 | 0.1 to 1 | 0.1 to 1 | CC(C)S(=O)(=O)c1ccccc1Nc1nc(Nc2cc(F)cc(F)c2)ncc1Cl [compound 6, 5-Chloro-N^2-(3,5-difluorophenyl)-N^4-(2-(isopropylsulfonyl)phenyl) pyrimidine-2,4-diamine] | – | –
6 | 0.1 to 1 | 0.1 to 1 | CC1(C)CCC(C)(C)c2cc(Nc3ncc(Cl)c(Nc4ccccc4P(C)(C)=O)n3)ccc21 [compound 7, (2-((5-Chloro-2-((5,5,8,8-tetramethyl-5,6,7,8-tetrahydronaphthalen-2-yl)amino)pyrimidin-4-yl)amino)phenyl)dimethylphosphine oxide] | 75 % of Con. | 103 % of Con.
7 | > 1 | > 1 | CP(C)(=O)c1ccccc1Nc1nc(N2CCc3c(N)cccc3C2)ncc1Cl [compound 9, (2-((2-(5-Amino-3,4-dihydroisoquinolin-2(1H)-yl)-5-chloropyrimidin-4-yl)amino)phenyl)dimethylphosphine oxide] | 110 % of Con. | 104 % of Con.
8 | > 1 | > 1 | Cc1cc(Nc2ncc(Cl)c(Nc3ccccc3P(C)(C)=O)n2)ccn1 [compound 10, (2-((5-Chloro-2-((2-methylpyridin-4-yl)amino)pyrimidin-4-yl)amino)phenyl)dimethylphosphine oxide] | 91 % of Con. | 120 % of Con.
9 | 0.001 to 0.01 | 0.001 to 0.01 | CP(C)(=O)c1ccccc1Nc1nc(Nc2ccc3ncsc3c2)ncc1Cl [compound 11, (2-((2-(Benzo[d]thiazol-6-ylamino)-5-chloropyrimidin-4-yl)amino)phenyl)dimethylphosphine oxide] | 28 % of Con. | 27 % of Con.
10 | > 1 | > 1 | CP(C)(=O)c1ccccc1Nc1nc(NCc2ccc(F)cc2)ncc1Cl [compound 12, (2-((5-Chloro-2-((4-fluorobenzyl)amino)pyrimidin-4-yl)amino)phenyl)dimethylphosphine oxide] | 85 % of Con. | 97 % of Con.
11 | > 1 | > 1 | CP(C)(=O)c1ccccc1Nc1nc(NCc2ccccc2)ncc1Cl [compound 14, (2-((2-(Benzylamino)-5-chloropyrimidin-4-yl)amino)phenyl) dimethylphosphine oxide] | 108 % of Con. | 110 % of Con.
12 | > 1 | > 1 | CP(C)(=O)c1ccccc1Nc1nc(Nc2ccncc2)ncc1Cl [compound 15, (2-((5-Chloro-2-(pyridin-4-ylamino)pyrimidin-4-yl)amino)phenyl) dimethylphosphine oxide] | 116 % of Con. | 110 % of Con.
13 | > 1 | > 1 | CP(C)(=O)c1ccccc1Nc1nc(NC2CCCCC2)ncc1Cl [compound 16, (2-((5-Chloro-2-(cyclohexylamino)pyrimidin-4-yl)amino)phenyl) dimethylphosphine oxide] | 82 % of Con. | 64 % of Con.
14 | 0.001 to 0.01 | 0.001 to 0.01 | Cc1nc2ccc(Nc3ncc(Cl)c(Nc4ccccc4P(C)(C)=O)n3)cc2s1 [compound 17, (2-((5-Chloro-2-((2-methylbenzo[d]thiazol-6-yl)amino)pyrimidin-4-yl)amino)phenyl)dimethylphosphine oxide] | 35 % of Con. | 17 % of Con.
15 | 0.01 to 0.1 | 0.001 to 0.01 | CP(C)(=O)c1ccccc1Nc1nc(Nc2ccc3ncccc3c2)ncc1Cl [compound 18, (2-((5-Chloro-2-(quinolin-6-ylamino)pyrimidin-4-yl)amino)phenyl) dimethylphosphine oxide] | 32 % of Con. | 16 % of Con.
16 | 0.01 to 0.1 | 0.01 to 0.1 | CP(C)(=O)c1ccccc1Nc1nc(Nc2cnc3ccccc3c2)ncc1Cl [compound 19, (2-((5-Chloro-2-(quinolin-3-ylamino)pyrimidin-4-yl)amino)phenyl) dimethylphosphine oxide] | 34 % of Con. | 25 % of Con.
17 | 0.01 to 0.1 | 0.001 to 0.01 | Cn1ncc2cc(Nc3ncc(Cl)c(Nc4ccccc4P(C)(C)=O)n3)cnc21 [compound 78] | – | 17 % of Con.
18 | 0.01 to 0.1 | 0.001 to 0.01 | CP(C)(=O)c1ccccc1Nc1nc(Nc2cnc3[nH]ccc3c2)ncc1Cl [compound 79, (2-((2-((1H-Pyrrolo[2,3-b]pyridin-5-yl)amino)-5-chloropyrimidin-4-yl)amino)phenyl)dimethylphosphine oxide] | – | 19 % of Con.
19 | 0.01 to 0.1 | 0.01 to 0.1 | CP(C)(=O)c1ccccc1Nc1nc(Nc2cnc3[nH]ncc3c2)ncc1Cl [compound 82, (2-((2-((1H-Pyrazolo[3,4-b]pyridin-5-yl)amino)-5-chloropyrimidin-4-yl)amino)phenyl)dimethylphosphine oxide] | – | 18 % of Con.
20 | 0.001 to 0.01 | 0.001 to 0.01 | CP(C)(=O)c1ccccc1Nc1nc(Nc2ccc3[nH]nc(-c4cccnc4F)c3c2)ncc1Cl [compound 83, (2-((5-Chloro-2-((3-(2-fluoropyridin-3-yl)-1H-indazol-5-yl)amino)pyrimidin-4-yl)amino)phenyl)dimethylphosphine oxide] | – | 11 % of Con.
21 | 0.001 to 0.01 | 0.001 to 0.01 | CP(C)(=O)c1ccccc1Nc1nc(Nc2ccc3[nH]nc(-c4cn[nH]c4)c3c2)ncc1Cl [compound 84, (2-((2-((3-(1H-Pyrazol-4-yl)-1H-indazol-5-yl)amino)-5-chloropyrimidin-4-yl)amino)phenyl)dimethylphosphine oxide] | – | 11 % of Con.
22 | 0.001 to 0.01 | 0.001 to 0.01 | CC(C)(C)OC(=O)N1CC=C(c2n[nH]c3ccc(Nc4ncc(Cl)c(Nc5ccccc5P(C)(C)=O)n4)cc23)CC1 [compound 85, Tert-butyl 4-(5-((5-chloro-4-((2-(dimethylphosphoryl)phenyl)amino)pyrimidin-2-yl)amino)-1H-indazol-3-yl)-3,6-dihydropyridine-1(2H)-carboxylate] | – | 6 % of Con.
23 | 0.001 to 0.01 | 0.001 to 0.01 | CP(C)(=O)c1ccccc1Nc1nc(Nc2ccc3[nH]nc(-c4ccc(C=O)o4)c3c2)ncc1Cl [compound 92, 5-(5-((5-Chloro-4-((2-(dimethylphosphoryl)phenyl)amino)pyrimidin-2-yl)amino)-1H-indazol-3-yl)furan-2-carbaldehyde] | – | 14.1 % of Con.

Row | Compound | IC50 [1] [µM] | IC50 [2] [µM] | Cell viability (% of Con. 10 μM) HepG2 (HepG2 cancer cells) | Cell viability (% of Con. 10 μM) HS746T (HS746T cancer cells)
24 | CP(C)(=O)c1ccccc1Nc1nc(Nc2ccc3[nH]nc(C4=CCNCC4)c3c2)ncc1Cl [compound 91] | 0.001 to 0.01 | 0.001 to 0.01 | – | 5.8 % of Con.
